Assay results as given in ChEMBL document CHEMBL1149187, “Design, synthesis, and biological activity of 4-[(4-cyano-2-arylbenzyloxy)-(3-methyl-3H-imidazol-4-yl)methyl]benzonitriles as potent and selective farnesyltransferase inhibitors” (J Med Chem, 2004).
One block for each compound: values may come before it.

Columns and labels:
[1] = target: T1, Protein farnesyltransferase (Homo sapiens, UniProt P49354+P49356); assay: Effective concentration required for inhibition of farnesylation of Ras protein in NIH3T3 cells; type: functional, cell-based, Mus musculus
in vivo [2] = details: dog, plasma
in vivo [3] = details: dog
[4] = Area under plasma concentration time curve in dog upon oral administration
[5] = Half-life in dog upon oral administration; details: in vivo
Canis familiaris [6] = assay: Half-life in dog upon oral administration; Unable to calculate; type: ADME, organism-based, Canis lupus familiaris; details: in vivo
Canis familiaris [7] = species: Canis familiaris; assay: Plasma clearance in dog; Unable to calculate; type: ADME, organism-based, Canis lupus familiaris; details: in vivo
[8] = target: T1, Protein farnesyltransferase; assay: (§1) Inhibition of Farnesyltransferase; type: protein-complex assay
[9] = target: Geranylgeranyl transferase type I (Homo sapiens, UniProt P49354+P53609); assay: Inhibition of Geranylgeranyl transferase type I; type: protein-complex assay
[10] = target: T1, Protein farnesyltransferase; assay: as §1; type: protein-complex assay; remark: listed apart in the source

SMILES: COc1cccc(-c2cc(C#N)ccc2COC(c2ccc(Cl)cc2)c2cncn2C)c1 (stereo not given)
EC50 [1]: 17.7 nM

SMILES: N#Cc1ccc(C(OCc2ccc(C#N)cc2-c2ccc3c(c2)OCO3)c2cnccc2Cl)cc1 (stereo not given)
EC50 [1]: > 100 nM

SMILES: COc1cccc(-c2cc(Cl)ccc2COC(c2ccc(C#N)cc2)c2cncn2C)c1 (stereo not given)
EC50 [1]: 100 nM

SMILES: Cn1cncc1C(OCc1ccc(C#N)cc1-c1cccc2ccccc12)c1ccc(C#N)cc1 (stereo not given)
EC50 [1]: 14 nM

SMILES: Cn1cncc1C(OCc1ccc(C#N)cc1C(=O)Nc1cccc(Cl)c1)c1ccc(C#N)cc1 (stereo not given)
EC50 [1]: 3.5 nM

SMILES: Cn1cncc1C(OCc1ccc(Cl)cc1-c1ccccc1Cl)c1ccc(C#N)cc1 (stereo not given)
bioavailability (in vivo [3]): 65%
T1/2 (Canis familiaris [6]): Unable to calculate
AUC [4]: 9850 ng·h/mL
Clp (Canis familiaris [7]): Unable to calculate
EC50 [1]: > 1000 nM

SMILES: Cn1cncc1C(OCc1ccc(C#N)cc1-c1cccc2cccnc12)c1ccc(C#N)cc1 (stereo not given)
EC50 [1]: 15 nM

SMILES: CCOc1cccc(-c2cc(C#N)ccc2COC(c2ccc(C#N)cc2)c2cncn2C)c1 (stereo not given)
clearance (in vivo [2]): 16.7 mL/min/kg
IC50 [8]: 0.69 nM
AUC [4]: 1130 ng·h/mL
half-life [5]: 2.2 h
EC50 [1]: 0.19 nM

SMILES: Cn1cncc1C(OCc1ccc(C#N)cc1-c1ccc2c(c1)OCO2)c1ccc(C#N)cc1 (stereo not given)
clearance (in vivo [2]): 10 mL/min/kg
AUC [4]: 3660 ng·h/mL
half-life [5]: 2.7 h
EC50 [1]: < 1 nM

SMILES: Cn1cncc1C(OCc1ccc(C#N)cc1-c1cccc(Cl)c1)c1ccc(C#N)cc1 (stereo not given)
clearance (in vivo [2]): 6.67 mL/min/kg
AUC [4]: 9890 ng·h/mL
half-life [5]: 4.7 h
EC50 [1]: 5.2 nM

SMILES: COc1cccc(-c2cc(NS(C)(=O)=O)ccc2COC(c2ccc(C#N)cc2)c2cncn2C)c1 (stereo not given)
EC50 [1]: > 100 nM

SMILES: Cn1cncc1C(OCc1ccc(C#N)cc1NS(=O)(=O)c1cccc2ccccc12)c1ccc(C#N)cc1 (stereo not given)
EC50 [1]: > 100 nM

SMILES: COc1ccc(-c2cc(C#N)ccc2COC(c2ccc(C#N)cc2)c2cncn2C)cc1 (stereo not given)
clearance (in vivo [2]): 12.2 mL/min/kg
AUC [4]: 760 ng·h/mL
half-life [5]: 3.6 h
EC50 [1]: 7 nM

SMILES: Cn1cncc1C(OCc1ccc(Cl)cc1-c1cccc(Cl)c1)c1ccc(C#N)cc1 (stereo not given)
EC50 [1]: 390 nM

SMILES: Cn1cncc1C(OCc1ccc(Cl)cc1-c1ccc(Cl)cc1)c1ccc(C#N)cc1 (stereo not given)
EC50 [1]: 525 nM

SMILES: COc1cccc(-c2cc(C#N)ccc2COC(c2ccc(C#N)c(Cl)c2)c2cncn2C)c1 (stereo not given)
EC50 [1]: 130 nM

Second part, the compound after the results:

EC50 [1]: 96 nM
SMILES: Cn1cncc1C(OCc1ccc(C#N)cc1-c1ccc(F)c(F)c1)c1ccc(C#N)cc1 (stereo not given)

EC50 [1]: > 100 nM
SMILES: COCC(=O)Nc1ccc(COC(c2ccc(C#N)cc2)c2cncn2C)c(-c2cccc(OC)c2)c1 (stereo not given)

EC50 [1]: 0.81 nM
SMILES: COc1cccc(-c2cc([N+](=O)[O-])ccc2COC(c2ccc(C#N)cc2)c2cncn2C)c1 (stereo not given)

clearance (in vivo [2]): 31.2 mL/min/kg
bioavailability (in vivo [3]): 15.2%
AUC [4]: 100 ng·h/mL
half-life [5]: 0.9 h
EC50 [1]: 9.8 nM
SMILES: Cc1ncc(C(OCc2ccc(C#N)cc2-c2ccc3c(c2)OCO3)c2ccc(C#N)cc2)n1C (stereo not given)

clearance (in vivo [2]): 3.17 mL/min/kg
bioavailability (in vivo [3]): 96%
AUC [4]: 5720 ng·h/mL
half-life [5]: 18.4 h
EC50 [1]: 12 nM
SMILES: Cn1cncc1C(OCc1ccc(C#N)cc1C(=O)Nc1ccccc1)c1ccc(C#N)cc1 (stereo not given)

clearance (in vivo [2]): 8 mL/min/kg
bioavailability (in vivo [3]): 71%
AUC [4]: 1580 ng·h/mL
half-life [5]: 8.7 h
EC50 [1]: 36 nM
SMILES: Cn1cncc1C(OCc1ccc(C#N)cc1-c1cccc(Cl)c1)c1ccc(C#N)c(F)c1 (stereo not given)

EC50 [1]: 13 nM
SMILES: CCOc1ccc(-c2cc(C#N)ccc2COC(c2ccc(C#N)cc2)c2cncn2C)cc1 (stereo not given)

EC50 [1]: 3.3 nM
SMILES: Cn1cncc1C(OCc1ccc(C#N)cc1-c1cccc(Cl)c1)c1ccc(C#N)cc1F (stereo not given)

EC50 [1]: 154 nM
SMILES: Cc1ncc(C(OCc2ccc(C#N)cc2-c2cccc(Cl)c2)c2ccc(C#N)cc2)n1C (stereo not given)

EC50 [1]: > 100 nM
SMILES: COc1cccc(-c2cc(C=O)ccc2COC(c2ccc(C#N)cc2)c2cncn2C)c1 (stereo not given)

EC50 [1]: > 100 nM
SMILES: Cc1ccc(-c2cc(C#N)ccc2COC(c2ccc(C#N)cc2)c2cncn2C)cc1 (stereo not given)

EC50 [1]: 4.6 nM
SMILES: CCOc1cccc(-c2cc(Cl)ccc2COC(c2ccc(C#N)cc2)c2cncn2C)c1 (stereo not given)

IC50 [9]: 18 nM
IC50 [10]: 0.3 nM
SMILES: Cn1cncc1C(OCc1ccc(C#N)cc1)c1ccc(C#N)c(-c2cccc3ccccc23)c1 (stereo not given)

EC50 [1]: > 100 nM
SMILES: Cn1cncc1C(OCc1ccc(C#N)cc1-c1cccc(Cl)c1)c1ccc(C(F)(F)F)cc1 (stereo not given)

clearance (in vivo [2]): 8.5 mL/min/kg
AUC [4]: 260 ng·h/mL
half-life [5]: 2.2 h
EC50 [1]: 1 nM
SMILES: COCc1cccc(-c2cc(C#N)ccc2COC(c2ccc(C#N)cc2)c2cncn2C)c1 (stereo not given)

EC50 [1]: > 100 nM
SMILES: Cn1cncc1C(OCc1ccc(C#N)cc1NS(=O)(=O)c1cccs1)c1ccc(C#N)cc1 (stereo not given)

clearance (in vivo [2]): 7.33 mL/min/kg
AUC [4]: 1530 ng·h/mL
half-life [5]: 6.7 h
EC50 [1]: 5.1 nM
SMILES: Cn1cncc1C(OCc1ccc(C#N)cc1-c1ccc(OC(F)(F)F)cc1)c1ccc(C#N)cc1 (stereo not given)

IC50 [9]: 24 nM
IC50 [10]: 0.4 nM
EC50 [1]: 8 nM
SMILES: Cn1cncc1C(OCc1ccc(C#N)cn1)c1ccc(C#N)c(-c2cccc3ccccc23)c1 (stereo not given)

clearance (in vivo [2]): 5.17 mL/min/kg
AUC [4]: 2760 ng·h/mL
half-life [5]: 1.3 h
EC50 [1]: 9.1 nM
SMILES: Cn1cncc1C(OCc1ccc(C#N)cc1-c1ccc2c(c1)OC(F)(F)O2)c1ccc(C#N)cc1 (stereo not given)

EC50 [1]: > 100 nM
SMILES: COC(=O)c1ccc(COC(c2ccc(C#N)cc2)c2cncn2C)c(-c2cccc(OC)c2)c1 (stereo not given)

EC50 [1]: 150 nM
SMILES: Cn1cncc1C(OCc1ccc(C#N)cc1NCc1cc(F)cc(F)c1)c1ccc(C#N)cc1 (stereo not given)

EC50 [1]: > 100 nM
SMILES: COc1cccc(-c2cc(N)ccc2COC(c2ccc(C#N)cc2)c2cncn2C)c1 (stereo not given)

EC50 [1]: 13 nM
SMILES: Cc1ccc(S(=O)(=O)Nc2cc(C#N)ccc2COC(c2ccc(C#N)cc2)c2cncn2C)cc1 (stereo not given)
